In patent US20230083973A1, “SUBSTITUTED CYCLOPROPYL-2,2'-BIP[…], ANALOGUES THEREOF, AND METHODS USING SAME” (priority 2019, published 2023):
Read-outs that look alike come from different tables or passages of the source.

Test system: HBsAg
Test: HBsAg assay: inhibition of HBsAg in HepG2.2.15 cells (chemiluminescence immunoassay of supernatant)
Type: cell-based, hepatitis B virus
Conditions: HBsAg in supernatant at day 6 after exposure to compound, 0.5% DMSO
In short: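 Secreted HBsAg quantified by CLIA in day-6 supernatants of HepG2.2.15 cultures given compound dilutions at 0.5% final DMSO, with one compound/medium replenishment after 2–3 days. Dose-response fits gave EC50 (50% inhibition); viability checked separately by CellTiter-Glo.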

[1] = read-out: sAg EC50, HepG2.2.15 cells

Row | SMILES | EC50 [1] | EC50 (Hepatitis B virus, HepG2.2.15, 144 h, read-out: sAg EC50, HepG2.2.15 cells)
1 | Fc1ccc(C2CC2c2cnc(-c3ncccn3)nc2)cc1OC(F)F (single isomer, unassigned) [Example 186, trans-5-(2-(3-(Difluoromethoxy)-4-fluorophenyl)cyclopropyl)-2,2′-bipyrimidine] | 1.6 µM | 
2 | CN1CCN(c2cc(C3CC3c3cnc(-c4ncccn4)nc3)ccc2F)CC1 (single isomer, unassigned) [Example 187, trans-5-(2-(4-Fluoro-3-(4-methylpiperazin-1-yl)phenyl)cyclopropyl)-2,2′-bipyrimidine] | 15 µM | 
3 | CN1CCN(c2cc(C3CC3c3cnc(-c4ncccn4)nc3)ccc2F)CC1 (single isomer, unassigned) [Example 188, trans-5-(2-(4-Fluoro-3-(4-methylpiperazin-1-yl)phenyl)cyclopropyl)-2,2′-bipyrimidine] | 4 µM | 
4 | COc1c(F)ccc(C2CC2c2cnc(-c3ncccn3)nc2)c1F (single isomer, unassigned) [Example 189, trans-5-(2-(2,4-Difluoro-3-methoxyphenyl)cyclopropyl)-2,2′-bipyrimidine] | 0.12 µM | 
5 | COc1c(F)ccc(C2CC2c2cnc(-c3ncccn3)nc2)c1F (single isomer, unassigned) [Example 190, trans-5-(2-(2,4-Difluoro-3-methoxyphenyl)cyclopropyl)-2,2′-bipyrimidine] | 1.3 µM | 
6 | COc1cc(C2CC2c2ccc(-c3ncccn3)nn2)ccc1F (single isomer, unassigned) [Example 191, trans-3-(2-(4-Fluoro-3-methoxyphenyl)cyclopropyl)-6-(pyrimidin-2-yl)pyridazine] | 2 µM | 
7 | COc1cc(C2CC2c2ccc(-c3ncccn3)nn2)ccc1F (single isomer, unassigned) [Example 192, trans-3-(2-(4-Fluoro-3-methoxyphenyl)cyclopropyl)-6-(pyrimidin-2-yl)pyridazine] | 49 µM | 
8 | COc1cc(C2CC2c2cnc(-c3ncccn3)c3ccccc23)ccc1F (single isomer, unassigned) [Example 193, trans-4-(2-(4-Fluoro-3-methoxyphenyl)cyclopropyl)-1-(pyrimidin-2-yl)isoquinoline] |  | 43 µM
9 | COc1cc(C2CC2c2cnc(-c3ncccn3)c3ccccc23)ccc1F (single isomer, unassigned) [Example 194, trans-4-(2-(4-Fluoro-3-methoxyphenyl)cyclopropyl)-1-(pyrimidin-2-yl)isoquinoline] | 49 µM | 
10 | Fc1ccc(C2CC2c2cnc(-c3ncccn3)nc2)cc1N1CCCCC1 (single isomer, unassigned) [Example 195, trans-5-(2-(4-Fluoro-3-(piperidin-1-yl)phenyl)cyclopropyl)-2,2′-bipyrimidine] | 3 µM | 
11 | Fc1ccc(C2CC2c2cnc(-c3ncccn3)nc2)cc1N1CCCCC1 (single isomer, unassigned) [Example 196, trans-5-(2-(4-Fluoro-3-(piperidin-1-yl)phenyl)cyclopropyl)-2,2′-bipyrimidine] | 0.21 µM | 
12 | O=C1CCCN1c1cc(C2CC2c2cnc(-c3ncccn3)nc2)ccc1F (single isomer, unassigned) [Example 197, trans-1-(5-(2-([2,2′-Bipyrimidin]-5-yl)cyclopropyl)-2-fluorophenyl)pyrrolidin-2-one] | 3 µM | 
13 | O=C1CCCN1c1cc(C2CC2c2cnc(-c3ncccn3)nc2)ccc1F (single isomer, unassigned) [Example 198, trans-1-(5-(2-([2,2′-Bipyrimidin]-5-yl)cyclopropyl)-2-fluorophenyl)pyrrolidin-2-one] | 0.43 µM | 
14 | Clc1ccc(C2CC2c2cnc(-c3ncccn3)nc2)cc1N1CCCC1 (single isomer, unassigned) [Example 199, trans-5-(2-(4-Chloro-3-(pyrrolidin-1-yl)phenyl)cyclopropyl)-2,2′-bipyrimidine] | 0.14 µM | 
15 | Clc1ccc(C2CC2c2cnc(-c3ncccn3)nc2)cc1N1CCCC1 (single isomer, unassigned) [Example 200, trans-5-(2-(4-Chloro-3-(pyrrolidin-1-yl)phenyl)cyclopropyl)-2,2′-bipyrimidine] | 0.057 µM | 
